According to DBAASP:
≈ marks a conversion by molar mass, not a printed value. Where “and” joins values, the source holds several entries; their conditions need not be identical. Equal entries are not always repeated. Each block holds one compound with its values, some of them ahead of it.

Assays:
Assay in all cases: ≥ marks a high value that may be exact or a test limit, other limits are often not marked, values filed in µg/mL are converted to µM
[1] = system: Staphylococcus xylosus BCRC 12930
[2] = system: Vibrio harveyi
[3] = system: Klebsiella oxytoca BCRC 13985
[4] = system: Enterobacter cloacae BCRC 10401
[5] = system: Vibrio parahaemolyticus
[6] = system: Staphylococcus aureus BCRC 10780
[7] = system: Staphylococcus aureus BCRC 10781
[8] = system: Klebsiella aerogenes BCRC 10370
[9] = system: Vibrio alginolyticus
[10] = system: Listeria monocytogenes BCRC 14845
[11] = system: Vibrio parahaemolyticus BCRC 10806
[12] = system: Streptococcus iniae
[13] = system: Lactococcus garvieae
[14] = system: Vibrio anguillarum serotype O1
[15] = system: Escherichia coli BCRC 10675
[16] = system: Vibrio alginolyticus BCRC 12829
[17] = system: Yersinia enterocolitica BCRC 13999
[18] = system: Streptococcus equinus BCRC 14729
[19] = system: Pseudomonas aeruginosa BCRC 10944
[20] = system: Escherichia coli NEB5alpha
[21] = system: Bacillus subtilis ATCC 6051
[22] = system: Staphylococcus aureus 930918-3
[23] = system: Staphylococcus aureus ATCC 33591
[24] = system: Pseudomonas aeruginosa H188
[25] = system: Escherichia coli UB1005
[26] = system: Pseudomonas aeruginosa H187
[27] = system: Salmonella typhimurium C587
[28] = system: Salmonella typhimurium C610
[29] = system: Staphylococcus aureus ATCC 25923
[30] = system: Enterococcus faecalis C625
[31] = system: Bacillus subtilis C971
[32] = system: Corynebacterium xerosis C875
[33] = system: Staphylococcus aureus SAP 0017
[34] = system: Staphylococcus epidermidis C621
[35] = system: Escherichia coli DC2
[36] = system: Escherichia coli ATCC 25922
[37] = system: Pseudomonas aeruginosa ATCC 27853
[38] = system: Staphylococcus epidermidis ATCC 12228
[39] = system: Yersinia enterocolitica
[40] = system: Salmonella sp.
[41] = system: Staphylococcus aureus ATCC 43300
[42] = system: Escherichia coli
[43] = system: Salmonella enterica subsp. enterica serovar Enteritidis
[44] = system: Staphylococcus aureus ATCC 29213

MIC [1]: 6.92 µM (≈ 16 µg/mL)
MIC [2]: 3.46 µM (≈ 8 µg/mL)
MIC [3]: 13.8 µM (≈ 32 µg/mL)
MIC [4]: 6.92 µM (≈ 16 µg/mL)
MIC [6]: 3.46 µM (≈ 8 µg/mL)
MIC [7]: 6.92 µM (≈ 16 µg/mL)
MIC [8]: 6.92 µM (≈ 16 µg/mL)
MIC [9]: 6.92 µM (≈ 16 µg/mL)
MIC [10]: 13.8 µM (≈ 32 µg/mL)
MIC [12]: ≥ 55.4 µM
MIC [13]: ≥ 55.4 µM
MIC [14]: 6.92 µM (≈ 16 µg/mL)
MIC [15]: 6.92 µM (≈ 16 µg/mL)
MIC [16]: 13.8 µM (≈ 32 µg/mL)
MIC [17]: ≥ 55.4 µM
MIC [18]: ≥ 55.4 µM
MIC [19]: 13.8 µM (≈ 32 µg/mL)
Compound: CC[C@H](C)[C@H](NC(=O)[C@H](Cc1ccc(O)cc1)NC(=O)[C@H](CC(N)=O)NC(=O)[C@H](Cc1ccccc1)NC(=O)[C@@H](NC(=O)[C@H](CCCCN)NC(=O)[C@H](CCCCN)NC(=O)[C@@H](NC(=O)[C@H](CC(C)C)NC(=O)[C@H](CC(N)=O)NC(=O)[C@H](C)NC(=O)[C@H](Cc1ccccc1)NC(=O)[C@H](CCCCN)NC(=O)[C@H](CCCCN)NC(=O)[C@H](C)NC(=O)[C@H](C)NC(=O)[C@H](CC(N)=O)NC(=O)[C@H](C)NC(=O)CN)[C@@H](C)CC)[C@@H](C)CC)C(=O)N[C@@H](Cc1c[nH]c2ccccc12)C(=O)O [GANAAKKFANLIKKIFNYIW]
MIC [5]: 6.92 µM (≈ 16 µg/mL)
MIC [11]: 13.8 µM (≈ 32 µg/mL)

MIC [20]: ≥ 1000 µM
MIC [21]: ≥ 1000 µM
Compound: CC[C@H](C)[C@H](NC(=O)[C@H](CC(N)=O)NC(=O)[C@H](CCC(N)=O)NC(=O)[C@@H](N)Cc1cnc[nH]1)C(=O)NCC(=O)N[C@@H](CO)C(=O)N[C@@H](CO)C(=O)N[C@@H](CO)C(=O)N[C@@H](CO)C(=O)N1CCC[C@H]1C(=O)N[C@@H](CC(=O)O)C(=O)N[C@H](C(=O)N[C@@H](Cc1ccc(O)cc1)C(=O)O)[C@@H](C)CC [HQNIGSSSSPDIY]

MIC [22]: ≥ 127 µM
MIC [23]: ≥ 127 µM
Compound: CC[C@H](C)[C@H](NC(=O)[C@H](CCCCN)NC(=O)[C@H](CCCCN)NC(=O)[C@H](CC(C)C)NC(=O)[C@H](CCCCN)NC(=O)[C@H](CCC(=O)O)NC(=O)[C@H](CCCCN)NC(=O)[C@@H](NC(=O)[C@@H](N)CCCCN)[C@@H](C)CC)C(=O)NCC(=O)N[C@@H](CCC(N)=O)C(=O)N[C@@H](CCCCN)C(=O)N[C@H](C(=O)N[C@@H](CCC(N)=O)C(=O)NCC(=O)N[C@@H](CC(C)C)C(=O)N[C@@H](CC(C)C)C(=O)O)[C@@H](C)CC [KIKEKLKKIGQKIQGLL]

MIC [24]: 5.51 µM (≈ 16.2 µg/mL)
MIC [25]: 2.2 µM (≈ 6.49 µg/mL)
MIC [26]: 3.48 µM (≈ 10.2 µg/mL)
MIC [27]: 6.95 µM (≈ 20.5 µg/mL)
MIC [28]: 1.38 µM (≈ 4.06 µg/mL)
MIC [29]: 5.51 µM (≈ 16.2 µg/mL)
MIC [30]: 6.95 µM (≈ 20.5 µg/mL)
MIC [31]: 0.861 µM (≈ 2.54 µg/mL)
MIC [32]: 0.689 µM (≈ 2.03 µg/mL)
MIC [33]: 4.37 µM (≈ 12.9 µg/mL)
MIC [34]: 1.38 µM (≈ 4.06 µg/mL)
MIC [35]: 1.38 µM (≈ 4.06 µg/mL)
Compound: CC[C@H](C)[C@H](NC(=O)[C@H](C)NC(=O)[C@H](CCCCN)NC(=O)[C@H](CC(C)C)NC(=O)[C@H](C)NC(=O)[C@@H](NC(=O)[C@H](Cc1cnc[nH]1)NC(=O)[C@H](CC(C)C)NC(=O)[C@@H](NC(=O)[C@@H](NC(=O)[C@H](CCCCN)NC(=O)[C@@H](NC(=O)[C@H](C)NC(=O)[C@H](C)NC(=O)[C@H](CCCCN)NC(=O)[C@H](Cc1ccccc1)NC(=O)[C@@H](NC(=O)[C@H](CCCCN)NC(=O)[C@H](CC(C)C)NC(=O)[C@H](Cc1ccccc1)NC(=O)[C@H](CO)NC(=O)[C@H](CCCCN)NC(=O)[C@H](Cc1c[nH]c2ccccc12)NC(=O)[C@H](CCCCN)NC(C)=O)[C@@H](C)O)C(C)C)[C@@H](C)O)C(C)C)[C@@H](C)O)C(=O)N[C@@H](CO)C(=O)N[C@@H](CO)C(N)=O [KWKSFLKTFKAAVKTVLHTALKAISS]

MIC [24]: 3.47 µM (≈ 10.2 µg/mL)
MIC [25]: 0.86 µM (≈ 2.54 µg/mL)
MIC [36]: 8 µM (≈ 23.6 µg/mL)
MIC [37]: 8 µM (≈ 23.6 µg/mL)
MIC [26]: 2.2 µM (≈ 6.49 µg/mL)
MIC [27]: 2.2 µM (≈ 6.49 µg/mL)
MIC [28]: 0.688 µM (≈ 2.03 µg/mL)
MIC [38]: 4 µM (≈ 11.8 µg/mL)
MIC [29]: 5.5 µM and 8 µM
MIC [30]: 17.5 µM (≈ 51.5 µg/mL)
MIC [31]: 0.86 µM (≈ 2.54 µg/mL)
MIC [32]: 0.55 µM (≈ 1.62 µg/mL)
MIC [33]: 4.37 µM (≈ 12.9 µg/mL)
MIC [34]: 1.38 µM (≈ 4.06 µg/mL)
MIC [35]: 0.86 µM (≈ 2.54 µg/mL)
Compound: CC[C@H](C)[C@H](NC(=O)[C@H](C)NC(=O)[C@H](CCCCN)NC(=O)[C@H](CC(C)C)NC(=O)[C@H](C)NC(=O)[C@@H](NC(=O)[C@H](Cc1cnc[nH]1)NC(=O)[C@H](CC(C)C)NC(=O)[C@@H](NC(=O)[C@@H](NC(=O)[C@H](CCCCN)NC(=O)[C@H](CO)NC(=O)[C@H](C)NC(=O)[C@H](CO)NC(=O)[C@H](CCCCN)NC(=O)[C@H](Cc1ccccc1)NC(=O)[C@@H](NC(=O)[C@H](CCCCN)NC(=O)[C@H](CC(C)C)NC(=O)[C@H](Cc1ccccc1)NC(=O)[C@H](CO)NC(=O)[C@H](CCCCN)NC(=O)[C@H](Cc1c[nH]c2ccccc12)NC(=O)[C@H](CCCCN)NC(C)=O)[C@@H](C)O)[C@@H](C)O)C(C)C)[C@@H](C)O)C(=O)N[C@@H](CO)C(=O)N[C@@H](CO)C(N)=O [KWKSFLKTFKSASKTVLHTALKAISS]

MIC [39]: ≥ 50 µM
MIC [40]: ≥ 50 µM
MIC [41]: > 50 µM
MIC [36]: > 50 µM
MIC [37]: > 50 µM
MIC [42]: > 50 µM
MIC [43]: ≥ 50 µM
MIC [44]: > 50 µM
Compound: CC[C@H](C)[C@H](NC(=O)[C@H](CCC(N)=O)NC(=O)[C@@H](N)CCCN=C(N)N)C(=O)N[C@@H](CCCN=C(N)N)C(=O)N[C@@H](Cc1c[nH]c2ccccc12)C(=O)N[C@@H](CCC(N)=O)C(=O)N[C@@H](CCCN=C(N)N)C(N)=O [RQIRWQR]
